In US20150307461A1, “ANTIVIRAL COMPOUNDS” (priority 2012, published 2015) one finds EC50 data, which are given here for 35 molecules.

Structures are written as SMILES.

Holding throughout (experiment): microbe, parasite or virus in culture
Test [1] concerns Pseudotyped HCV GT1b particles (HCVpp). Format: cell-based, HCV GT1b Con1 strain. Conditions: Hepatitis C virus, 72 h, read-out: HCVpp GT-1b (EC50, μM).
Test [2] deals with pseudotyped VSV G particles (VSVpp). Format: cell-based. Conditions: Vesicular stomatitis virus, 72 h, read-out: VSVpp (EC50, μM).
Test [3] deals with Pseudotyped HCV GT1a particles (HCVpp). It is filed as cell-based, HCV GT1a H77 strain. The following applies: Hepatitis C virus, 72 h, read-out: HCVpp GT-1a (EC50, μM).

For the molecule `N#Cc1c(Cl)cc(Nc2n[nH]c(N)n2)cc1Cl` [Compound I-2, 4-(5-Amino-1H-[1,2,4]triazol-3-ylamino)-2,6-dichloro-benzonitrile], the values for the EC50 in test [1], in test [2] and in test [3] were 0.277 µM, 64.6 µM and 0.009 µM, respectively.
`Nc1nc(Nc2cc(Cl)c(I)c(Cl)c2)n[nH]1` [Compound I-3, N^3-(3,5-Dichloro-4-iodo-phenyl)-1H-[1,2,4]triazole-3,5-diamine]: the EC50 came out at 0.386 µM in test [1], 32.7 µM in test [2] and 0.012 µM in test [3].
For the molecule `Nc1nc(Nc2cccc(S(=O)(=O)C(F)(F)F)c2)n[nH]1` [Compound I-4, N^3-(3-Trifluoromethanesulfonyl-phenyl)-1H-[1,2,4]triazole-3,5-diamine], the EC50 was 0.823 µM in test [1], 100 µM in test [2] and 0.412 µM in test [3].
For `CC(C)(C)c1cccc(Nc2n[nH]c(N)n2)c1` [Compound I-6, N^3-(3-tert-Butyl-phenyl)-1H-[1,2,4]triazole-3,5-diamine], the EC50 in test [1] amounted to 1.59 µM; in test [2], 100 µM; in test [3] it was 0.948 µM.
Regarding `Nc1nc(Nc2ccc(S(=O)(=O)C(F)(F)F)c(Cl)c2)n[nH]1` [Compound I-7, N*3*-(3-Chloro-4-trifluoromethanesulfonyl-phenyl)-1H-[1,2,4]triazole-3,5-diamine], the EC50 in test [1] amounted to 0.91 µM; in test [2], 100 µM; in test [3] it was 1.28 µM.
As for `Nc1nc(Nc2ccc([N+](=O)[O-])c(Cl)c2)n[nH]1` [Compound I-8, N*3*-(3-Chloro-4-nitro-phenyl)-1H-[1,2,4]triazole-3,5-diamine], the EC50 in test [1] came to 1.15 µM; in test [2] it was 98.1 µM; in test [3], 0.141 µM.
Turning to `C#Cc1ccc(Nc2n[nH]c(N)n2)cc1Cl` [Compound I-9, N*3*-(3-Chloro-4-ethynyl-phenyl)-1H-[1,2,4]triazole-3,5-diamine], the results for the EC50 in test [1], in test [2] and in test [3] were 3.08 µM, 45.5 µM and 0.161 µM, respectively.
For the molecule `Nc1nc(Nc2ccc(C(F)(F)F)c(Cl)c2)n[nH]1` [Compound I-10, N*3*-(3-Chloro-4-trifluoromethyl-phenyl)-1H-[1,2,4]triazole-3,5-diamine], the results for the concentration for a half-maximal effect (EC50) in test [1], in test [2] and in test [3] were 5.14 µM, 100 µM and 0.368 µM, respectively.
For the molecule `Nc1nc(Nc2cc(Cl)c(Cl)c(Cl)c2)n[nH]1` [Compound I-11, N*3*-(3,4,5-Trichloro-phenyl)-1H-[1,2,4]triazole-3,5-diamine], the half-maximal effective concentration (EC50) in test [1] was 4.68 µM; in test [2] it was 100 µM; in test [3], 0.166 µM.
Turning to `N#Cc1ccc(Nc2n[nH]c(N)n2)cc1Cl` [Compound I-12, 4-(5-Amino-1H-[1,2,4]triazol-3-ylamino)-2-chloro-benzonitrile], the EC50 in test [1] stood at 4.19 µM; in test [2], 100 µM; in test [3], 0.335 µM.
For `Nc1nc(Nc2ccc(Cl)c([N+](=O)[O-])c2)n[nH]1` [Compound I-13, N*3*-(4-Chloro-3-nitro-phenyl)-1H-[1,2,4]triazole-3,5-diamine] the same measures were 4.85 µM, 100 µM and 0.539 µM.
`Nc1nc(Nc2ccc(C#Cc3ccccc3)c(Cl)c2)n[nH]1` [Compound I-14, N*3*-(3-Chloro-4-phenylethynyl-phenyl)-1H-[1,2,4]triazole-3,5-diamine]: the EC50 in test [1] was 32.7 µM; in test [2] it was 100 µM; in test [3], 5.34 µM.
As to `Nc1nc(Nc2cccc(Br)c2)n[nH]1` [Compound I-15, N*3*-(3-Bromo-phenyl)-1H-[1,2,4]triazole-3,5-diamine], the EC50 was 18.1 µM in test [1], 100 µM in test [2] and 1.41 µM in test [3].
Taken in the same sequence, the figures for `CC(C)(C)c1cc(Nc2n[nH]c(N)n2)ccc1C#N` [Compound I-16, 4-(5-Amino-1H-[1,2,4]triazol-3-ylamino)-2-tert-butyl-benzonitrile] were 16.1 µM, 100 µM and 5.34 µM.
On to `Nc1nc(Nc2ccc(S(=O)(=O)C(F)(F)F)cc2)n[nH]1` [Compound I-17, N*3*-(4-Trifluoromethanesulfonyl-phenyl)-1H-[1,2,4]triazole-3,5-diamine], for which the concentration giving a half-maximal response (EC50) in test [1] amounted to 14.2 µM; in test [2], 100 µM; in test [3], 12.6 µM.
Take `Nc1nc(Nc2ccc3ccccc3c2)n[nH]1` [Compound I-18, N*3*-Naphthalen-2-yl-1H-[1,2,4]triazole-3,5-diamine]: the EC50 in test [1] worked out at 27.5 µM; in test [2] it was 100 µM; in test [3], 2.95 µM.
Taken in the same sequence, the figures for `CC(C)(C)c1cc(Nc2n[nH]c(N)n2)cc(C(C)(C)C)c1` [Compound I-19, N*3*-(3,5-Di-tert-butyl-phenyl)-1H-[1,2,4]triazole-3,5-diamine] were 56.8 µM, 87.8 µM and 44.7 µM.
Taken in the same sequence, the figures for `CS(=O)(=O)c1ccc(Nc2n[nH]c(N)n2)cc1` [Compound I-20, N*3*-(4-Methanesulfonyl-phenyl)-1H-[1,2,4]triazole-3,5-diamine] were 100 µM, 100 µM and 90.6 µM.
With `CS(=O)(=O)c1cccc(Nc2n[nH]c(N)n2)c1` [Compound I-21, N*3*-(3-Methanesulfonyl-phenyl)-1H-[1,2,4]triazole-3,5-diamine], the concentration for a half-maximal effect (EC50) worked out at 41.4 µM in test [1], 100 µM in test [2] and 12.6 µM in test [3].
Taken in the same sequence, the figures for `CNS(=O)(=O)c1ccc(Nc2n[nH]c(N)n2)cc1` [Compound I-22, 4-(5-Amino-1H-[1,2,4]triazol-3-ylamino)-N-methyl-benzenesulfonamide] were 100 µM, 100 µM and 100 µM.
With `Nc1nc(Nc2ccc(C(=O)N3CCOCC3)cc2)n[nH]1` [Compound I-23, [4-(5-Amino-1H-[1,2,4]triazol-3-ylamino)-phenyl]-morpholin-4-yl-methanone], the EC50 in test [1], in test [2] and in test [3] was 100 µM in each case.
`CN(C)C(=O)c1ccc(Nc2n[nH]c(N)n2)cc1` [Compound I-24, 4-(5-Amino-1H-[1,2,4]triazol-3-ylamino)-N,N-dimethyl-benzamide]: the EC50 in test [1], in test [2] and in test [3] was 100 µM each time.
Regarding `Nc1nc(Nc2ccc(S(N)(=O)=O)cc2)n[nH]1` [Compound I-25, 4-(5-Amino-1H-[1,2,4]triazol-3-ylamino)-benzenesulfonamide], the 50% effective concentration (EC50) in test [1] turned out to be 100 µM; in test [2], 100 µM; in test [3] it was 86.4 µM.
In the case of `CN(C)S(=O)(=O)c1ccc(Nc2n[nH]c(N)n2)cc1` [Compound I-26, 4-(5-Amino-1H-[1,2,4]triazol-3-ylamino)-N,N-dimethyl-benzenesulfonamide], the EC50 in test [1], in test [2] and in test [3] was 100 µM throughout.
With `N#Cc1ccc(Nc2n[nH]c(N)n2)cc1C1CC1` [Compound I-35, 4-(5-Amino-1H-1,2,4-triazol-3-ylamino)-2-cyclopropylbenzonitrile], the concentration giving a half-maximal response (EC50) was 1.73 µM in test [1], 62.8 µM in test [2] and 0.34 µM in test [3].
As for `Nc1nc(Nc2cccc(Cl)c2)n[nH]1` [Compound I-36, N*3*-(3-Chloro-phenyl)-1H-[1,2,4]triazole-3,5-diamine], the half-maximal effective concentration (EC50) in test [1] amounted to 28.6 µM; in test [2], 100 µM; in test [3], 1.84 µM.
For `Nc1nc(Nc2ccc(OCc3ccccc3)c(Cl)c2)n[nH]1` [Compound I-37, N*3*-(4-Benzyloxy-3-chloro-phenyl)-1H-[1,2,4]triazole-3,5-diamine] the same measures were 13.4 µM, 33.3 µM and 0.92 µM.
As to `Cc1c(Cl)cc(Nc2n[nH]c(N)n2)cc1Cl` [Compound I-38, N*3*-(3,5-Dichloro-4-methyl-phenyl)-1H-[1,2,4]triazole-3,5-diamine], the EC50 turned out to be 0.75 µM in test [1], 79.4 µM in test [2] and 0.023 µM in test [3].
Turning to `Nc1nc(Nc2cc(Cl)c(C3CC3)c(Cl)c2)n[nH]1` [Compound I-39], the EC50 stood at 0.574 µM in test [1], 37.9 µM in test [2] and 0.015 µM in test [3].
As to `Nc1nc(Nc2cc(Cl)cc(Cl)c2)n[nH]1` [Compound I-41, 3-Amino-5-(3,5-Dichloroanilino)-S-triazole], the EC50 in test [1] is 1.61 µM; in test [3], 0.138 µM.
Taken in the same sequence, the figures for `Nc1nc(Nc2cc(Cl)c(Br)c(C(F)(F)F)c2)n[nH]1` [Compound I-42, N3-(4-bromo-3-chloro-5-(trifluoromethyl)phenyl)-1H-1,2,4-triazole-3,5-diamine] were 0.404 µM and 0.081 µM.
With `CS(=O)(=O)c1ccc(Nc2n[nH]c(N)n2)cc1Cl` [Compound I-77, N^3-(3-Chloro-4-methanesulfonyl-phenyl)-1H-[1,2,4]triazole-3,5-diamine], the values for the concentration giving a half-maximal response (EC50) in test [1] and in test [3] were 20.4 µM and 1.59 µM, respectively.
Turning to `N#Cc1ccc(Nc2n[nH]c(N)n2)cc1S(F)(F)(F)(F)F` [Compound I-85, 4-(5-Amino-1H-[1,2,4]triazol-3-ylamino)-2-pentafluorosulfur-benzonitrile], the half-maximal effective concentration (EC50) in test [1] was 0.287 µM; in test [2] it was > 10 µM.
`N#Cc1c(F)cc(Nc2n[nH]c(N)n2)cc1S(F)(F)(F)(F)F` [Compound I-86, 4-(5-Amino-1H-[1,2,4]triazol-3-ylamino)-2-fluoro-6-pentafluorosulfur-benzonitrile]: the results for the concentration giving a half-maximal response (EC50) in test [1] and in test [2] were 0.104 µM and > 10 µM, respectively.
`N#Cc1c(NN)cc(Nc2n[nH]c(N)n2)cc1S(F)(F)(F)(F)F` [Compound I-87, 4-(5-Amino-1H-[1,2,4]triazol-3-ylamino)-2-hydrazino-6-pentafluorosulfur-benzonitrile]: the values for the EC50 in test [1] and in test [2] were 1.65 µM and > 10 µM, respectively.
